Measured values published in BigSolDB 2.1.

Details: 298 K

| SMILES | solubility (mole fraction) (in n-octanol) | solubility (mole fraction) (in water) | solubility (mole fraction) (in n-hexane) |
| --- | --- | --- | --- |
| Nc1ccc(S(=O)(=O)N(c2ccccc2)c2ccccc2)cc1 | 0.000551 | 4.84e-07 | 5.4e-06 |
| Nc1ccc(S(=O)(=O)Nc2ccc(Cl)c(Cl)c2)cc1 | 0.000422 | 2.05e-07 |  |
| O=S(=O)(Nc1ccc(Cl)cc1)c1ccccc1 | 0.0421 | 1.68e-06 | 1.37e-06 |
| Nc1ccc(S(=O)(=O)Nc2ccccc2Cl)c(Cl)c1 | 7.4e-05 | 1.19e-07 |  |
| CCOC(=O)c1ccc(NS(=O)(=O)c2ccccc2)nc1 | 0.0006 | 1.24e-06 |  |
| O=S(=O)(Nc1ccccc1Cl)c1ccccc1 | 0.0036 | 8.69e-07 | 7.73e-06 |
| Cc1cc(N)ccc1S(=O)(=O)Nc1ccc(Cl)cc1 | 0.00356 | 6.71e-07 | 4.59e-06 |
| O=[N+]([O-])c1ccc(S(=O)(=O)Nc2nccs2)cc1 |  | 4.23e-06 |  |
| O=[N+]([O-])c1ccccc1NS(=O)(=O)c1ccccc1 | 0.0106 | 1.78e-06 |  |
| O=[N+]([O-])c1ccc(NS(=O)(=O)c2ccccc2)cc1 | 0.0116 | 2.11e-06 | 3.16e-06 |
| CCOc1ccc(NS(=O)(=O)c2ccc([N+](=O)[O-])cc2)cc1 | 0.00125 | 3.41e-07 | 3.95e-06 |
| Nc1ccc(S(=O)(=O)Nc2ccc([N+](=O)[O-])cc2)cc1 | 0.003 | 3.65e-06 |  |
| O=S(=O)(Nc1cccnc1Cl)c1ccccc1 | 0.00151 |  | 2.63e-05 |
| Nc1ccc(S(=O)(=O)Nc2cc(Cl)c(Cl)cc2Cl)cc1 | 0.00109 | 2.51e-07 | 6.32e-06 |
| Cc1cc(N)ccc1S(=O)(=O)Nc1ccccc1[N+](=O)[O-] | 0.000198 | 5.18e-07 | 3.22e-06 |
| O=S(=O)(Nc1ncccc1Cl)c1ccccc1 | 0.00282 | 1.17e-05 | 6.58e-05 |
| Cc1ccc(NS(=O)(=O)c2ccc([N+](=O)[O-])cc2)nc1 | 3.38e-05 | 1.13e-06 |  |
| Cc1cc(N)ccc1S(=O)(=O)Nc1ccccc1Cl | 0.000115 | 1.57e-07 | 1.08e-06 |
| Nc1ccc(S(=O)(=O)Nc2ccc([N+](=O)[O-])cc2Br)cc1 | 0.000308 | 3.01e-07 |  |
| Nc1ccc(S(=O)(=O)Nc2ccc(Cl)cc2)c(Cl)c1 | 0.00248 | 4.72e-07 |  |
| O=S(=O)(Nc1ccccc1)c1ccccc1 | 0.0335 | 8.49e-06 | 0.000101 |

Second part, the compound after the results:

| solubility (mole fraction) (in n-octanol) | solubility (mole fraction) (in water) | solubility (mole fraction) (in n-hexane) | SMILES |
| --- | --- | --- | --- |
| 0.00486 | 0.00103 |  | CNS(=O)(=O)c1ccc(N)cc1 |
| 0.00104 | 5.09e-07 | 2.77e-06 | CCc1ccc(NS(=O)(=O)c2ccc(N)cc2)cc1 |
| 0.00145 | 1.19e-06 |  | Nc1ccc(S(=O)(=O)Nc2ccc(Cl)cc2)cc1 |
| 0.0108 | 4.27e-05 | 2.41e-05 | CCN(CC)S(=O)(=O)c1ccc(N)cc1 |
| 0.00188 | 1.61e-06 | 2.94e-06 | Cc1ccc(Cl)cc1NS(=O)(=O)c1ccc(N)cc1 |
| 0.000681 | 3.32e-07 | 6.05e-06 | Nc1ccc(S(=O)(=O)Nc2cccc(Cl)c2Cl)cc1 |
| 0.00158 | 7.65e-07 | 2.43e-06 | Cc1ccc(NS(=O)(=O)c2ccc(N)cc2)c(Cl)c1 |
| 0.000233 | 1.32e-06 | 2.24e-06 | COc1ccc(NS(=O)(=O)c2ccc(N)cc2)cc1 |
| 0.000873 | 3.21e-05 | 2.9e-06 | CN(C)S(=O)(=O)c1ccc(N)cc1 |
| 0.00163 | 5.44e-07 |  | Nc1ccc(S(=O)(=O)Nc2ccc(I)cc2)cc1 |
| 0.000529 | 7.25e-07 | 4.69e-06 | Nc1ccc(S(=O)(=O)Nc2cc(Cl)ccc2Cl)cc1 |
| 0.00129 | 5.47e-06 |  | N#Cc1ccc(NS(=O)(=O)c2ccc(N)cc2)cc1 |
| 0.00489 | 7.72e-07 |  | Cc1cc(Cl)ccc1NS(=O)(=O)c1ccc(N)cc1 |
| 0.000552 | 1.53e-07 |  | Cc1ccc(NS(=O)(=O)c2ccc(N)cc2)cc1Cl |
